Where two headings read alike, the source gives them in different places.
Experiments:
[1] = In vitro activity against T. brucei bloodstream forms (resazurin); type: cell-based, Trypanosoma brucei; conditions: human; SI compared with Hep G cells (Table 1); read-out: Selectivity index (SI), T. brucei compared with cytotoxicity to Hep G cells (converted)
Method: (§1) Bloodstream form T. brucei (strain 427, derivative 221) was maintained in modified Iscove’s medium, as described previously ([Taylor et al., 2013]). […] The parasites were diluted to 1 × 10^4 ml^−1, the compound was added at a range of concentrations, and the plates were incubated at 37°C in 5% CO2 for 48 h. Resazurin was then added to each well, and the plates were incubated for a further 16 h. Fluorescence intensities were determined using a BMG FLUOstar Omega plate reader (excitation 545 nm, emission 590 nm), and data were analyzed using Graph Pad Prism 9.0 software. […]

[2] = tested on: T. brucei bloodstream forms (strain 427, derivative 221); assay: as above; type: cell-based, Trypanosoma brucei; conditions: Trypanosoma brucei, bloodstream forms, hydrochloride salts except 6 (citrate), ± SE; for IC50: 64 h, 48 h + 16 h resazurin
Method: as §1

Hep G2-A16-CD81 cells = assay: Hep G2 cellular toxicity counter-screen (CellTiterGlo); type: cell-based; conditions: HepG2-A16-CD81, no sporozoites, ± SE, read-out: Activity against Hep G cells
Method: (§2) Briefly, 3000 Hep G2-A16-CD81 cells/well were seeded in 1536-well plates (Greiner Bio). 50 nL of the test and control compound diluted in DMSO was added and incubated for 24 h. […] The plates were centrifuged for 5 min at 330 × g and incubated at 37°C. Forty-eight hours post infection, 2 μL of luciferin reagent (Promega BrightGlo) was added to each well, and the luciferase activity was detected using a Perkin Elmer Envision plate reader. […] To counter-screen for cellular toxicity, Hep G2-A16-CD81 cells were seeded as above for the sporozoite liver-stage assay but in the absence of sporozoites. Toxicity measurements were performed by adding Promega CellTiterGlo® (2 μL), followed by luminescence measurements. Curve fitting was done as described above using puromycin (25 μM) as a positive control and DMSO as negative control wells.

P. berghei sporozoites = assay: P. berghei liver-stage assay (sporozoites in Hep G2-A16-CD81 cells, luciferase); type: cell-based, Plasmodium berghei; conditions: for IC50: Plasmodium berghei, HepG2-A16-CD81, sporozoites in Hep G2-A16-CD81 cells, 48 h post infection, ± SE, read-out: Activity against the P. berghei liver stage, IC50
Method: as §2

A2780/ADR cells = assay: Chemosensitivity MTT assay, doxorubicin-resistant A2780/ADR; type: cell-based; conditions: Homo sapiens, 96 h, ± SE, read-out: Activity against A2780/ADR cells, IC50
Method: A modified MTT assay was used ([Shnyder et al., 2008]). Cells (2 × 10^4/ml) were inoculated into each well of a 96-well plate and incubated for 24 h at 37°C in a humidified atmosphere containing 5% CO2. Compounds were then added at a range of concentrations to each well, and the plates were then incubated for a further 96 h. After 96 h, the culture medium was removed and 200 μL of 0.5 mg ml^–1 MTT solution (Sigma) in the complete medium was added to each well. Following a further 4 h incubation, the solution was removed from each well and 150 μL of DMSO was added to solubilize the formazan crystals resulting from MTT conversion. The absorbance values for the resulting solutions were read at 540 nm on an Azure 96-well microplate reader (Azure Biosynstems Inc.), and the cell survival was calculated as the absorbance of treated cells divided by the control.

P. knowlesi A1-H.1 = assay: In vitro antiplasmodial activity, P. knowlesi A1-H.1 (SYBR Green I); type: cell-based, Plasmodium knowlesi; conditions: 27 h
Method: P. falciparum (3D7 clone) and P. knowlesi (A1-H.1 clone) were maintained in culture in RPMI 1640 supplemented with 25 mM HEPES, 25 mM NaHCO3, 10 mM D-glucose, 2 mM L-glutamine, 50 mg/L hypoxanthine, 25 mg/L gentamicin sulfate, 5 g/L Albumax II, and 10% (v/v) equine serum (Thermo Fisher Scientific, 26-050-088). The P. falciparum (3D7) and P. knowlesi (A1-H.1) parasites were grown in human A^+ red blood cells (National Health Blood and Transplant, United Kingdom). The parasites were incubated in sealed flasks at 37°C under a culture gas mixture of 96% N2, 3% CO2, and 1% O2. ([van Schalkwyk et al., 2019]). The compounds were initially dissolved in DMSO prior to diluting in RPMI. All experiments were initiated using unsynchronized parasites with both the parasitemia and hematocrit set to 1%. Drug susceptibility assays were set up in 96-well, flat-bottom microplates in a final volume of 200 μL, as described previously ([van Schalkwyk et al., 2017]). The controls were included for the background fluorescence (0% viability; parasites exposed to a supralethal 10 μM chloroquine concentration) and 100% growth (parasites in drug-free wells). The plates were incubated for one complete life cycle (27 h for P. knowlesi or 48 h for P. falciparum in vitro) at 37°C in a modular incubation chamber (Billups-Rothenburg Inc.) under the culture gas. Upon termination of the assay, the plates were stored at −20°C overnight. The SYBR Green I fluorescent method was used to measure parasite survival ([Bennett et al., 2004]; [Smilkstein et al., 2004]). After the microplates were thawed, 100 μL from each well was transferred into a duplicate plate. To this was added 100 μL of SYBR green solution [SYBR Green I (Thermo Fisher Scientific, S7563), diluted 1:5000 in a lysis buffer made of 20 mM Tris, 5 mM EDTA, 0.008% (w/v) saponin, 0.08% (v/v) Triton X-100, pH 7.5]. The plates were stored in the dark for 1 h before fluorescence was read at a 490 nm excitation wavelength and a 520 nm emission wavelength on a Spectramax M3 microplate reader (Molecular Devices) ([van Schalkwyk et al., 2017]). The background fluorescence (wells with parasites at 0% viability) was subtracted from all drug assay wells, and the parasite proliferation was determined as a percentage of the fluorescence in the drug-free control wells.

[3] = Plasmodium knowlesi, read-out: Activity against P. knowlesi A1-H.1, IC50, 27 h, ± SD

SMILES | selectivity ratio at 48 h [1] | IC50 [2] | IC90 [2] | IC50 (Hep G2-A16-CD81 cells) | IC50 (P. berghei sporozoites) | Selectivity index (SI), P. berghei liver stage with respect to Hep G cells (P. berghei sporozoites) | IC50 (A2780/ADR cells) | IC50 (P. knowlesi A1-H.1; [3]) | IC50 (P. knowlesi A1-H.1; read-out: Activity against P. knowlesi A1-H.1, IC50, ± SD)
C[n+]1c2ccccc2cc2[n-]c3ccc(I)cc3c21 [Compound 5, 7-iodocryptolepine] | 82.4 | 81.3 ± 2.5 nM | 113 ± 11 nM | 6700 ± 500 nM | 14600 ± 420 nM | 0.46 | 180 ± 10 nM | 110 nM | 104 ± 40 nM
C[n+]1c2ccccc2cc2[n-]c3c(Br)cc(Br)cc3c21 [Compound 4, 7,9-Dibromocryptolepine] | 240 | 28.3 ± 0.5 nM | 40.3 ± 6.1 nM | 6790 ± 920 nM | 5820 ± 260 nM | 1.17 | 310 ± 60 nM | 1120 ± 450 nM | –
C[n+]1c2ccccc2cc2[n-]c3c(I)cc(I)cc3c21 [Compound 6, 7,9-diiodocryptolepine] | 478 | 59 ± 13 nM | 114 ± 11 nM | 28200 ± 4100 nM | 6130 ± 620 nM | 4.6 | 180 ± 20 nM | 1040 ± 220 nM | –

From publication PMC9119314 (Frontiers in Pharmacology, 2022)
